Experimental data reported in patent US9617267B2, “Compounds and methods for kinase modulation, and indications therefor” (Plexxikon Inc., priority 2009, dated 2017).
Read-outs that look alike come from different tables or passages of the source.

Columns and labels:
[1] = target: B-Raf (Homo sapiens (Human), UniProt P15056); assay: B-Raf kinase activity biochemical assay (AlphaScreen, biotin-MEK1 phosphorylation); settings: B-Raf
How it was run: (§1)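 Compounds from a 0.1 mM DMSO stock were tested at 8 serially diluted points. Kinase reactions with 100 μM ATP (final) ran 45 min at room temperature, then were stopped with EDTA buffer containing anti-phospho-MEK1/2 antibody plus streptavidin donor and protein A acceptor beads.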

[2] = system: B-Raf; assay: as above; settings: for Biochemical activity ratio B/V600E: ratio of IC50 B-Raf / B-Raf V600E; for Biochemical activity ratio B/C: ratio of IC50 B-Raf / c-Raf-1
How it was run: as §1

[3] = target: CYP1A2 (Homo sapiens (Human), UniProt P05177); assay: CYP enzyme inhibition, fluorescent substrate (CEC)
CYP1A2, sequence (P05177 whole entry): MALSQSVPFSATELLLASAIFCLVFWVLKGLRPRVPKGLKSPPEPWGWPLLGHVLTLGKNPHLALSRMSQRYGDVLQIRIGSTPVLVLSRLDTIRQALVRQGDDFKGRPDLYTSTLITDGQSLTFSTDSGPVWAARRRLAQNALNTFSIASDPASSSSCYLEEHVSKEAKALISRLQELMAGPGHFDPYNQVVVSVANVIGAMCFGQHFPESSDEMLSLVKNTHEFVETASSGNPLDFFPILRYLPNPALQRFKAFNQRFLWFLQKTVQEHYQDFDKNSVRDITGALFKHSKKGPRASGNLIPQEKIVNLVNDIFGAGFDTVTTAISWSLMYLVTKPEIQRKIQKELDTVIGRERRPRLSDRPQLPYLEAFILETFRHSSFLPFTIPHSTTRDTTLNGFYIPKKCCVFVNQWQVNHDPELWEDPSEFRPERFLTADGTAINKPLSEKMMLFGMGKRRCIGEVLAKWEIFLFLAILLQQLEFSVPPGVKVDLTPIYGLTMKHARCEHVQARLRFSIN
How it was run: (§2)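 IC50 derived from loss of fluorescent metabolite across a 10-point 1:1 dilution series. CYP2D6: 1.5 pmol enzyme, 1.5 μM AMMC, 30 min at 37 °C, 409/530 nm; CYP1A2: 0.5 pmol, 5 μM CEC, 15 min, 409/460 nm. Compounds pre-incubated 10 min in NADPH-regenerating mix.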

[4] = target: CYP2C9 (Homo sapiens (Human), UniProt P11712); assay: CYP enzyme inhibition, fluorescent substrate (MFC)
CYP2C9, sequence (P11712 whole entry): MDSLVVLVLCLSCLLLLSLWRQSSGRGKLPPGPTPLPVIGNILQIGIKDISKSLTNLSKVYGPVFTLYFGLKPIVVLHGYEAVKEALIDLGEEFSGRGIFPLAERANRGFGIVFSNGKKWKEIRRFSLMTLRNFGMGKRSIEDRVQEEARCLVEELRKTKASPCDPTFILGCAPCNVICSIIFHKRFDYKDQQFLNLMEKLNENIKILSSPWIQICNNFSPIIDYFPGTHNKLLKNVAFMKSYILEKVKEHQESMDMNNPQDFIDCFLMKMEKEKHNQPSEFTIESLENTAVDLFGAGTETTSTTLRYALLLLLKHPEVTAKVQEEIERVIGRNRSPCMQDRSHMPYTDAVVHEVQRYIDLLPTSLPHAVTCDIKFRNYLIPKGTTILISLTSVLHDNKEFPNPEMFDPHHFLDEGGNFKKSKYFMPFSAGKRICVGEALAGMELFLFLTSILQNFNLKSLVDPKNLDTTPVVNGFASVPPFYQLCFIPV
How it was run: (§3)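 First, 100 mM DMSO stocks are diluted into acetonitrile, then twofold through co-factor mix for 10 points. Next, mixtures are preincubated 10 min at 37 °C.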

[5] = target: CYP2C19 (Homo sapiens (Human), UniProt P33261); assay: CYP enzyme inhibition, fluorescent substrate (CEC)
CYP2C19, sequence (P33261 whole entry): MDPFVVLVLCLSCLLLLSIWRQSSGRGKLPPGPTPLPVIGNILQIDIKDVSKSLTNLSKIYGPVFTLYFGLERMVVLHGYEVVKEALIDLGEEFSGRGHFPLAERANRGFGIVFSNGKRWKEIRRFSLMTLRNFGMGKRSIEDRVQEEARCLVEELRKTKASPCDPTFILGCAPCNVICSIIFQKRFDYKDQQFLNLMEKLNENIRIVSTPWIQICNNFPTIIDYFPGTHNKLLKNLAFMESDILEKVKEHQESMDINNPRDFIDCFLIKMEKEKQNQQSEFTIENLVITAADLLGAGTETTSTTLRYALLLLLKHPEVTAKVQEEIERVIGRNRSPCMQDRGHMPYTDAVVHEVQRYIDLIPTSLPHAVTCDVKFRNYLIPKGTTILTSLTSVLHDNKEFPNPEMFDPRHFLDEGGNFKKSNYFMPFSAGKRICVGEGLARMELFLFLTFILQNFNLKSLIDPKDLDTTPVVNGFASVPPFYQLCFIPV
How it was run: as §3

[6] = target: CYP3A4 (Homo sapiens (Human), UniProt P08684); assay: CYP enzyme inhibition, fluorescent substrate BFC; settings: human, CYP3A4 enzyme (BD Biosciences), probe BFC
CYP3A4, sequence (P08684 whole entry): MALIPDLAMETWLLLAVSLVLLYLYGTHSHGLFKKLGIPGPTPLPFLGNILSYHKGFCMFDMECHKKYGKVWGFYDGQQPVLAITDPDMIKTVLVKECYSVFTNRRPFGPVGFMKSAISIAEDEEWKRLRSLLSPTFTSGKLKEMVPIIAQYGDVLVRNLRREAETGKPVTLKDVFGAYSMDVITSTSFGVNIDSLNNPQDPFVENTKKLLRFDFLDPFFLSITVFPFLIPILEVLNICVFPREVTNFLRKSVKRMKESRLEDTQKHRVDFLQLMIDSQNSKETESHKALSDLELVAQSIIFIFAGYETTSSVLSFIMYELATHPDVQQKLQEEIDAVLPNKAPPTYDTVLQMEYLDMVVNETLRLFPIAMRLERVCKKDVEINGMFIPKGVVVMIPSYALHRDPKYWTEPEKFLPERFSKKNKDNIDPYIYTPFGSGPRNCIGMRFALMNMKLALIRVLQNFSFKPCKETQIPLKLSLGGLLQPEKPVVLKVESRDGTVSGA
How it was run: as §3

[7] = target: CYP3A4(BQ) (Homo sapiens (Human), UniProt P08684); assay: CYP enzyme inhibition, fluorescent substrate BQ
CYP3A4(BQ), sequence (P08684 whole entry): as above
How it was run: as §3

[8] = target: B-Raf V600E (Homo sapiens (Human), UniProt P15056, V600E); assay: B-Raf V600E kinase activity biochemical assay (AlphaScreen, biotin-MEK1 phosphorylation); settings: for IC50: B-Raf V600E; for Biochemical activity ratio V600E/C: ratio of IC50 B-Raf V600E / c-Raf-1
B-Raf V600E, sequence (P15056 whole entry V600E): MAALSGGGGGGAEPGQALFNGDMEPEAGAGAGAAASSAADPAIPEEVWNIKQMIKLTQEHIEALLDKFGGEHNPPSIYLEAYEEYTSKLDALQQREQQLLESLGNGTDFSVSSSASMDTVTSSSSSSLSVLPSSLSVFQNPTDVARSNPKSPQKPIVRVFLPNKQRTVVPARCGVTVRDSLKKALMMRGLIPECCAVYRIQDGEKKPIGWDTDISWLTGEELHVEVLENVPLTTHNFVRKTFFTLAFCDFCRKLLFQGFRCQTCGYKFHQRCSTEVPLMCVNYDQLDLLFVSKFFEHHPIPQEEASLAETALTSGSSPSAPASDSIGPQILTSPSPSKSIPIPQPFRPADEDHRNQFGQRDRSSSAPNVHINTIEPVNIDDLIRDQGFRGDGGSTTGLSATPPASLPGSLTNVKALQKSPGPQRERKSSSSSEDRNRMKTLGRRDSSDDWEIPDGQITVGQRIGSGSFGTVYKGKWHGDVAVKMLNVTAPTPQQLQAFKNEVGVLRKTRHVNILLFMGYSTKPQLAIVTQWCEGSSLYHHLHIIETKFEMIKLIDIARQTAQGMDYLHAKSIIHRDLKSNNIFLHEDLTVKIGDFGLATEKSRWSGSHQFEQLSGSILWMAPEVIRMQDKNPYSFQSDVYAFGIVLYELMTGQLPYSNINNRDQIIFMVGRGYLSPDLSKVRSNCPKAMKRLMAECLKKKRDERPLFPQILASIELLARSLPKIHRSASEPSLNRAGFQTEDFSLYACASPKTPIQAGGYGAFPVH
How it was run: as §1

[9] = target: c-Raf-1 (Homo sapiens, UniProt P04049); assay: c-Raf-1 kinase activity biochemical assay (AlphaScreen, biotin-MEK1 phosphorylation)
c-Raf-1, sequence (P04049 whole entry, looked up): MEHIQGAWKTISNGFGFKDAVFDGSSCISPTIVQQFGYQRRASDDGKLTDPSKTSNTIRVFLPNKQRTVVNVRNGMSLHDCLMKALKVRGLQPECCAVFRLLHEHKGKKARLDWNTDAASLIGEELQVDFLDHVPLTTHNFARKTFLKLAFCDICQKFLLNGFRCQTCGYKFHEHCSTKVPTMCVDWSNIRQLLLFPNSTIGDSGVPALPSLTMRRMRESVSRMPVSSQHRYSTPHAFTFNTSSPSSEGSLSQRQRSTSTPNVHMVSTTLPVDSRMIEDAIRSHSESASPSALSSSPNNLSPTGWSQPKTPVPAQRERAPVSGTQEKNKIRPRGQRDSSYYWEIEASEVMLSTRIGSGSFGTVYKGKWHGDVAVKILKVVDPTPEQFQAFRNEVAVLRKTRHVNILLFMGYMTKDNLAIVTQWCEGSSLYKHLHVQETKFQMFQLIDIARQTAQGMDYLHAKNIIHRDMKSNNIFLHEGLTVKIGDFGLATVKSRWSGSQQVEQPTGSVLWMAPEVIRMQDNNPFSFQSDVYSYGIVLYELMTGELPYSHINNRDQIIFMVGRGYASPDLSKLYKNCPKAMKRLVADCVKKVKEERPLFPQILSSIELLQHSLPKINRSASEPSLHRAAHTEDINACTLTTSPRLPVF
How it was run: as §1

[10] = target: CYP2D6 (Homo sapiens (Human), UniProt P10635); assay: CYP enzyme inhibition, fluorescent substrate (AMMC); assay type: in vitro ADME; settings: read-out: Cyp IC50 2D6
CYP2D6, sequence (P10635 whole entry): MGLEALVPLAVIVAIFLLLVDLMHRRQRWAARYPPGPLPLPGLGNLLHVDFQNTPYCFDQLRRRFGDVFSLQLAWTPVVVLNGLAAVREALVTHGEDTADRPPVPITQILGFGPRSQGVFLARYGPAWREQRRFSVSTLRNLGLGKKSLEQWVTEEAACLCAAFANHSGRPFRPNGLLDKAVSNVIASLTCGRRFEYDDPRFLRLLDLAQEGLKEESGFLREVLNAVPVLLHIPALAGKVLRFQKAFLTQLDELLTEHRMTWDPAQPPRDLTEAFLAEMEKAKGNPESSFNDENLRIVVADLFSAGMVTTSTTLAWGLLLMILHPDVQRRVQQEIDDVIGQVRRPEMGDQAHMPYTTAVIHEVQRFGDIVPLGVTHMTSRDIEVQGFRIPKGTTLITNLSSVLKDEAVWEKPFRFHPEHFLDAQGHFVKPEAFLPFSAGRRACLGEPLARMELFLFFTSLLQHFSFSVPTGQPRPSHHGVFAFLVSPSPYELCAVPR
How it was run: as §2

[11] = Relative solubility by turbidity threshold concentration in aqueous buffers (pH 1.5, 4.5, 6.8, 7.4); assay type: physicochemical; settings: for turbidity threshold (L, M, H) 1.4: pH 1.4 [sic] (method: SGF pH 1.5); for turbidity threshold (L, M, H) 4.5: pH 4.5 (SIF); for turbidity threshold (L, M, H) 6.8: pH 6.8 (SIF); for turbidity threshold (L, M, H) 7.4: pH 7.4 (HEPES)
How it was run: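 Solubility class (high >250 μM, moderate 31.3–250 μM, low <31.3 μM) comes from the concentration where absorbance reaches a 0.01 threshold, averaged across 490/535/650 nm. Samples were compound dilutions from DMSO stock, 1 μL into 99 μL buffer at pH 1.5, 4.5, 6.8 or 7.4.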

[12] = target: CYP3A4(BFC) (Homo sapiens (Human), UniProt P08684); assay: CYP enzyme inhibition, fluorescent substrate BFC
CYP3A4(BFC), sequence (P08684 whole entry): as the sequence (P08684 whole entry) above
How it was run: as §3

B-Raf (Homo sapiens (Human), UniProt P15056), sequence (P15056 whole entry): as the sequence (P15056 whole entry V600E) above, with E600V counted along it

Row | IC50 [1] | Biochemical activity ratio B/V600E [2] | Biochemical activity ratio B/C [2] | IC50 [7] | IC50 [8] | Biochemical activity ratio V600E/C [8] | IC50 [9] | IC50 [10] | IC50 [3] | IC50 [4] | IC50 [5] | IC50 [12] | Structure (SMILES) | turbidity threshold (L, M, H) 1.4 [11] | turbidity threshold (L, M, H) 4.5 [11] | turbidity threshold (L, M, H) 6.8 [11] | turbidity threshold (L, M, H) 7.4 [11] | further results
1 | > 0.1 µM | 0.1-10 | >10 | > 10 µM | < 0.1 µM | 0.1-10 | < 0.1 µM | – | – | – | – | – | CCCS(=O)(=O)Nc1ccc(F)c(C(=O)c2c[nH]c3nccc(NC4CCCC4)c23)c1F [P-2012, Propane-1-sulfonic acid [3-(4-cyclopentylamino-1H-pyrrolo[2,3-b]pyridine-3-carbonyl)-2,4-difluoro-phenyl]-amide] | – | – | – | – | IC50 at 15 min ([3]; human, CYP1A2 enzyme (BD Biosciences), probe CEC): > 10 µM; IC50 at 45 min ([4]; human, CYP2C9 enzyme (BD Biosciences), probe MFC): > 10 µM; IC50 at 30 min ([5]; human, CYP2C19 enzyme (BD Biosciences), probe CEC): > 10 µM; IC50 at 30 min [6]: > 10 µM; IC50 at 30 min ([10]; human, CYP2D6 enzyme (BD Biosciences), probe AMMC): > 10 µM
2 | < 0.1 µM | 0.1-10 | 0.1-10 | > 10 µM | < 0.1 µM | 0.1-10 | < 0.1 µM | > 10 µM | > 10 µM | 5 to 10 µM | 5 to 10 µM | > 10 µM | CCCS(=O)(=O)Nc1ccc(F)c(C(=O)c2c[nH]c3ncc(Cl)c(C)c23)c1F [P-2008, Propane-1-sulfonic acid [3-(5-chloro-4-methyl-1H-pyrrolo[2,3-b]pyridine-3-carbonyl)-2,4-difluoro-phenyl]-amide] | L (low solubility if the threshold concentration is <31.3 μM) | M (moderate solubility if the threshold concentration is 31.3 μM to 250 μM) | L (low solubility if the threshold concentration is <31.3 μM) | M (moderate solubility if the threshold concentration is 31.3 μM to 250 μM) | –
3 | < 0.1 µM | 0.1-10 | >10 | > 10 µM | < 0.1 µM | 0.1-10 | < 0.1 µM | > 10 µM | > 10 µM | < 5 µM | < 5 µM | 5 to 10 µM | CCCS(=O)(=O)Nc1ccc(F)c(C(=O)c2c[nH]c3ncc(Cl)c(OC)c23)c1F [P-2006, Propane-1-sulfonic acid [3-(5-chloro-4-methoxy-1H-pyrrolo[2,3-b]pyridine-3-carbonyl)-2,4-difluoro-phenyl]-amide] | M (moderate solubility if the threshold concentration is 31.3 μM to 250 μM) | M (moderate solubility if the threshold concentration is 31.3 μM to 250 μM) | M (moderate solubility if the threshold concentration is 31.3 μM to 250 μM) | M (moderate solubility if the threshold concentration is 31.3 μM to 250 μM) | –

Row | Structure (SMILES) | IC50 [1] | Biochemical activity ratio B/V600E [2] | Biochemical activity ratio B/C [2] | IC50 [7] | IC50 [8] | Biochemical activity ratio V600E/C [8] | IC50 [9] | IC50 [10] | IC50 [3] | IC50 [4] | IC50 [5] | IC50 [12] | turbidity threshold (L, M, H) 1.4 [11] | turbidity threshold (L, M, H) 4.5 [11] | turbidity threshold (L, M, H) 6.8 [11] | turbidity threshold (L, M, H) 7.4 [11] | further results
4 | CCCS(=O)(=O)Nc1ccc(F)c(C(=O)c2c[nH]c3ncnc(NC4CCOCC4)c23)c1F [P-1047, Propane-1-sulfonic acid {2,4-difluoro-3-[4-(tetrahydro-pyran-4-ylamino)-7H-pyrrolo[2,3-d]pyrimidine-5-carbonyl]-phenyl}-amide] | < 0.1 µM | 0.1-10 | >10 | – | < 0.1 µM | >10 | < 0.1 µM | > 10 µM | – | – | – | – | M (moderate solubility if the threshold concentration is 31.3 μM to 250 μM) | L (low solubility if the threshold concentration is <31.3 μM) | L (low solubility if the threshold concentration is <31.3 μM) | L (low solubility if the threshold concentration is <31.3 μM) | IC50 ([3]; read-out: Cyp IC50 1A2, CYP1A2, substrate CEC): > 10 µM; IC50 ([4]; read-out: Cyp IC50 2C9, CYP2C9, substrate MFC): > 10 µM; IC50 ([5]; read-out: Cyp IC50 2C19, CYP2C19, substrate CEC): > 10 µM; IC50 ([12]; read-out: Cyp IC50 3A4(BFC), CYP3A4, substrate BFC): > 10 µM; IC50 ([7]; read-out: Cyp IC50 3A4(BQ), CYP3A4, substrate BQ): > 10 µM
